Values of other authors as cited in patent US20250066696A1, “A STABLE BLEACH COMPOSITION” (Conopco Inc., d/b/a UNILEVER, priority 2021, published 2025).

- pKa: 5.23
SMILES: CCCCC(C)CCC(=O)O (stereo not shown) [4-methyl octanoic acid]
